Measurements from patent publication US20110195505A1, “BACTERIAL STRAINS FOR BUTANOL PRODUCTION” (priority 2009, published 2011).
Marks after values point to notes of the source that are not given here.

Columns and labels:
[1] = tested on: BP63 (L. plantarum PN0512ΔpyrFΔfabZ1); assay: Fatty acid supplements supporting growth of the fabZ1 mutant; type: cell-based; details: fatty acid supplied at 80 mg/L; overnight incubation, OD600
Experimental: With 100 or 200 mg/liter of oleic acid the growth of BP63 was equivalent to that of the fabZ1^+ control strain, BP15. […] Thus, we conclude that fabZ1 in L. plantarum has the same function as FabN in E. faecalis (Wang, H. and Cronan, J. E. 2004. Functional replacement of the FabA and FabB proteins of Escherichia coli fatty acid synthesis by Enterococcus faecalis FabZ and FabF homologs. J. Biol. Chem. 279, 34489-95). To further test the range of fatty acid supplements that support growth of the fabZ1 mutant, several other fatty acids were supplied at 80 mg/L to the semi-synthetic LAB medium as described above. BP63 and the parental control BP15 were inoculated from the working stocks. After overnight incubation, the OD600 was measured. The growth of BP15 was not inhibited by any of the fatty acids tested. The Table 9 below summarizes the results for the fabZ1 mutant strain, BP63.

[2] = tested on: L. plantarum strain PN0512; assay: FAME analysis of membrane lipids of stearic acid fed cultures; type: cell-based, Lactobacillus plantarum
Experimental: The membrane lipids were extracted by modified Bligh and Dyer protocol (Can. J. Biochem. Physiol. (1959) 37:911-17). The cell pellet prepared as described above was suspended in a mixture of 0.5 ml CHCl3 and 1 ml CH3OH, and transferred to a 13×100 mm tube with a screw top cap. The cap was screwed on about ¾ of the way (i.e., not tight), and the tube was incubated at 40° C. for 30 min. The tube was cooled and an additional 0.5 ml CHCl3 and 1 ml H2O were added the mixture. […] The two phases were equilibrated by vortexing. The two phases were allowed to separate; then the lower CHCl3 layer was removed and transferred to another 13×100 mm tube with a screw top cap. With the cap removed, the CHCl3 was evaporated under a stream of N2. Methyl esters of the fatty acids in the residue were then formed using one of the following procedures.
1 ml freshly made 1.0 M CH3ONa in CH3OH was added to the tubes containing lipid samples extracted by the Bligh and Dyer method as described above. The caps were placed on tubes, screwed on about ¾ of the way (i.e., not tight), then the tubes were heated at 60° C. for 30 minutes. The mixture was chilled in ice bath and 1 ml of 1.0 N HCl was added to the solution in the tubes. The pH of the resulting solution was checked with pH paper to make sure a pH of 7 or lower had been reached. 0.5 ml hexane was added into the test tube and mixed well by vortexing. The tubes were allowed to sit for a few minutes until two phases formed. The top hexane layer was removed and placed in a separate tube for storage until analysis, which was done by GC/FID and/or GC/MS. 2 μl of the hexane layer was injected into an Agilent GC (model 6890)/MS (model 5973). For routine samples a Supelco Equity-1 column (15 m×0.25 mm×0.25 μm film thickness; catalog #28045-U) was used with an FID detector (GC/FID). When an unknown peak needed to be identified, the same column was used with an Agilent MSD detector (GC/MS). When samples requiring difficult separations that were impossible to achieve on a 15 m column were analyzed (e.g., the separation of oleic from elaidic acid), a Supelco S-2380 column (100 m×0.25 mm×0.25 μm film thickness; catalog #24317) was used.
For preparation of samples for FAME analysis, the working stock was used to inoculate 40 ml of medium containing free fatty acids and the cultures were grown overnight. The cell pellet was harvested by centrifugation and was washed twice with phosphate buffered saline (PBS, Bio-Rad Laboratories, Hercules, Calif.) and 5 g/l BSA, then two more times with PBS. Cell pellets were stored at −80° C. until analyzed by FAME using a transesterification protocol, which quantifies fatty acids that have been incorporated in membrane lipids, but not free fatty acids associated with the cell membrane. The FAME analysis is described by Christie (1993) (In Advances in Lipid Methodology—Two, pp. 69-111, Ed. W. W. Christie, Oily Press, Dundee).
Cultures of Lactobacillus plantarum strain PN0512 were grown in media containing stearic acid along with control cultures (with no added fatty acids to the media), as described in General Methods. The membrane composition was analyzed by FAME analysis as described in General Methods as well. The results of FAME analyses shown in Table 6 indicate that stearic acid (C18:0), when added to the growth medium of a culture of strain PN0512, was incorporated into the cell membrane thereby resulting in a substantial increase of the amount of stearic fatty acid in the cell membrane.

[3] = tested on: L. plantarum strain PN0512; assay: Growth yield (OD600) in isobutanol, stearic acid fed and unfed cultures; type: cell-based, Lactobacillus plantarum; details: for OD600 fed Stearic: stearic acid 50 mg per liter, 25 hours, 30° C.
Experimental: For growth yield experiments, 5 ml of medium with test fatty acids (10-500 mg per liter) and varying concentrations of isobutanol in 15 ml screw cap tubes was inoculated with 12.5 μl of the working stock giving an initial OD600 of 0.012. The caps were tightly sealed and incubated at 30° C. on a roller drum for 20 to 26 hours, at which time 1.0 ml was removed and OD600 was measured with a blank of medium amended with the fatty acid. All solvent concentrations are reported as % (w/v).
Growth of L. plantarum cultures in the media described in General Methods and containing varying concentrations of isobutanol was measured and compared with the cultures fed (supplemented with) stearic acid at a final concentration of 50 mg per liter of medium. Cultures were prepared as described in General Methods.

Q: `CCCCCCCC/C=C/CCCCCCCC(=O)O` [Elaidic] was tested. Which “Supports growth of BP63” value [1] did it give?
A: The value was “YES”.

Q: How did the “Supports growth of BP63” value [1] turn out when `CCCCCCCC/C=C\CCCCCCCCCCCC(=O)O` [Erucic] was run?
A: The value was “Very slight growth”.

Q: For `CCCCC/C=C\C/C=C\CCCCCCCC(=O)O` [Linoleic], which “Supports growth of BP63” value [1] is on record?
A: The value was “YES”.

Q: With `CCCCCCCCCCCCCC(=O)O` [Myristic, Tetradecanoic Acid] as the compound, how does the “Supports growth of BP63” value [1] read?
A: The value was “no”.

Q: How did the “Supports growth of BP63” value [1] turn out when `CCCCCCCCCCCCCCCC(=O)O` [Palmitic, Hexadecanoic Acid] was run?
A: Its value is “no”.

Q: For `CCCCCC/C=C\CCCCCCCC(=O)O` [Palmitoleic], which “Supports growth of BP63” value [1] is on record?
A: The value was “YES”.

Q: Which “Membrane Fatty Acid Effect (stearic acid fed)/(stearic acid not fed), C16:0” value ([2]; ratio of molar %) does the source give for `CCCCCCCCCCCCCCCCCC(=O)O` [Stearic Acid, Octadecanoic Acid] here?
A: The value was 0.52.

Q: And the “Membrane Fatty Acid Effect (stearic acid fed)/(stearic acid not fed), C16:1” value ([2]; ratio of molar %)?
A: Its value is 1.30.

Q: And the “Membrane Fatty Acid Effect (stearic acid fed)/(stearic acid not fed), C18:0” value ([2]; ratio of molar %)?
A: Its value is 33.2.

Q: What about the “Membrane Fatty Acid Effect (stearic acid fed)/(stearic acid not fed), C18:1, cis” value ([2]; ratio of molar %) of the same compound?
A: The value was 0.78.

Q: What about the “Membrane Fatty Acid Effect (stearic acid fed)/(stearic acid not fed), cyc-C19:0” value ([2]; ratio of molar %) of the same compound?
A: Its value is 1.23.

Q: What about the “Membrane Fatty Acid Content, C16:0” value ([2]; stearic acid (C18:0) fed) of the same compound?
A: Its value is 14.1 molar %.

Q: What about the “Membrane Fatty Acid Content, C16:1” value ([2]; stearic acid (C18:0) fed) of the same compound?
A: The value was 10.0 molar %.

Q: What about the “Membrane Fatty Acid Content, C18:0” value ([2]; stearic acid (C18:0) fed) of the same compound?
A: Its value is 16.6 molar %.

Q: And the “Membrane Fatty Acid Content, C18:1, cis” value ([2]; stearic acid (C18:0) fed)?
A: The value was 34.4 molar %.

Q: And the “Membrane Fatty Acid Content, cyc-C19:0” value ([2]; stearic acid (C18:0) fed)?
A: The value was 25.0 molar %.

Q: And the “increase of molar % of stearic acid in the cell membrane” value ([2]; with stearic acid feeding)?
A: Its value is “more than 30 fold”.

Q: What about the “increase of molar ratio saturated/unsaturated fatty acids” value ([2]; with stearic acid feeding) of the same compound?
A: The value was 16%.

Q: And the “molar ratio of saturated fatty acids (C16:0 and C18:0) to unsaturated fatty acids (C16:1 and C18:1, cis)” value ([2]; with stearic acid feeding (0.53 without))?
A: The value was 0.69.

Q: What about the “OD600 Ratio OD600fed/OD600unfed control” value ([3]; 0 % w/v isobutanol) of the same compound?
A: Its value is 1.08.

Q: And the “OD600 fed Stearic” value ([3]; 0 % w/v isobutanol)?
A: Its value is 1.452.

Q: What about the “OD600 Ratio OD600fed/OD600unfed control” value ([3]; 2.3 % w/v isobutanol) of the same compound?
A: The value was 1.18.

Q: What about the “OD600 fed Stearic” value ([3]; 2.3 % w/v isobutanol) of the same compound?
A: Its value is 0.860.

Q: And the “OD600 Ratio OD600fed/OD600unfed control” value ([3]; 2.5 % w/v isobutanol)?
A: Its value is 1.23.

Q: And the “OD600 fed Stearic” value ([3]; 2.5 % w/v isobutanol)?
A: Its value is 0.422.

Q: And the “OD600 Ratio OD600fed/OD600unfed control” value ([3]; 2.7 % w/v isobutanol)?
A: The value was 1.57^b.

Q: What about the “OD600 fed Stearic” value ([3]; 2.7 % w/v isobutanol) of the same compound?
A: The value was 0.206.

Q: And the “OD600 Ratio OD600fed/OD600unfed control” value ([3]; 2.9 % w/v isobutanol)?
A: The value was 1.92.

Q: And the “OD600 fed Stearic” value ([3]; 2.9 % w/v isobutanol)?
A: Its value is 0.098.

Q: And the “growth yield of stearic acid fed cultures compared with control cultures” value ([3]; all tested concentrations of isobutanol)?
A: The value was “greater”.

Q: What about the “Supports growth of BP63” value [1] of the same compound?
A: The value was “no”.

Q: Which “Supports growth of BP63” value [1] does the source give for `CCCCCCCC/C=C\CCCCCCCCCC(=O)O` [cis 11-eicosenoic] here?
A: The value was “YES”.

Q: For `CCCCCC/C=C\CCCCCCCCCCCC(=O)O` [cis 13 eicosenoic], which “Supports growth of BP63” value [1] is on record?
A: Its value is “no”.

Q: How did the “Supports growth of BP63” value [1] turn out when `CCCCC/C=C\C/C=C\CCCCCCCCCC(=O)O` [cis-11,14-Eicosadienoic] was run?
A: The value was “Partial growth”.

Q: With `CCCCCC/C=C\CCCCCCCCCC(=O)O` [cis-Vaccenic] as the compound, how does the “Supports growth of BP63” value [1] read?
A: Its value is “YES”.

Q: `CCCCCCCC[C@@H]1C[C@@H]1CCCCCCCC(=O)O` [dihydrosterculic, Dihydrosterculic acid] was tested. Which “Supports growth of BP63” value [1] did it give?
A: The value was “YES”.
